“Also recorded” adds a separate entry of the source.
Legend:
RORγ = biological target: T1, RORγ (Homo sapiens, UniProt P51449); experiment: TR-FRET RORγ coactivator assay (LanthaScreen); details: RORγ LBD
T1 sequence (P51449 269-508 limits assumed): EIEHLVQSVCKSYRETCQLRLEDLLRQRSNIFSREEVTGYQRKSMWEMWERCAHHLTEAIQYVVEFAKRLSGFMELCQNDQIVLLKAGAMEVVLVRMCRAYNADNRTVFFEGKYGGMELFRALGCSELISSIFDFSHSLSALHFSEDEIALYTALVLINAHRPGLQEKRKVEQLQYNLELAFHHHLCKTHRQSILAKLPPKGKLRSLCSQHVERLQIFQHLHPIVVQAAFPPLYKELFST

[1] = test system: MC38 mouse colon tumour [MC38小鼠结肠肿瘤]; experiment: In vivo efficacy: MC38 colon tumour growth in syngeneic C57BL/6 mice; details: for TGI (tumour growth inhibition rate): MC38 in C57BL/6 mice

Row | SMILES | effect on RORγ in vitro activity (mode of modulation, in words) (RORγ) | further results
1 | CCS(=O)(=O)c1ccc(CNC(=O)c2ccc3c(c2)cc(Cc2ccc(F)cc2C(F)(F)F)n3C(C)C)cc1 [实施例4, N-(4-(乙磺酰基)苄基)-2-(4-氟-2-(三氟甲基)苄基)-1-异丙基-1H-吲哚-5-甲酰胺] | 表现出激动的效果 | –
2 | CCS(=O)(=O)c1ccc(CNC(=O)c2ccc3c(c2)cc(Cc2ccc(C(F)(F)F)cc2)n3C(C)C)cc1 [实施例14, N-(4-(乙磺酰基)苄基)-1-异丙基-2-(4-(三氟甲基)苄基)-1H-吲哚-5-甲酰胺] | 表现出抑制的效果 | –
3 | CCS(=O)(=O)c1ccc(CNC(=O)c2ccc3c(c2)cc(Cc2ccc(OC(F)(F)F)cc2)n3C(C)C)cc1 [实施例18, N-(4-(乙磺酰基)苄基)-1-异丙基-2-(4-(三氟甲氧基)苄基)-1H-吲哚-5-甲酰胺] | 表现出抑制的效果 | –
4 | CCS(=O)(=O)c1ccc(CNC(=O)c2ccc3c(c2)cc(Cc2ccc(Cl)cc2C(F)(F)F)n3CCF)cc1 [实施例30, 2-(4-氯-2-(三氟甲基)苄基)-N-(4-(乙磺酰基)苄基)-1-(2-氟乙基)-1H-吲哚-5-甲酰胺] | – | TGI (tumour growth inhibition rate) ([1]; Example 30 (12.5 mg/kg) combined with anti-mouse PD-1 monoclonal antibody (5 mg/mouse)): 68%; synergy in words ([1]; Example 30 combined with PD-1 antibody, MC38 colon tumour model): 较强的协同效应; also recorded: 较强的协同作用; biological activity in vivo in words (RORγ activation versus inhibition) ([1]; MC38 colon tumour model, conclusion of the applicant): 具有与RORγ激活(而非抑制)一致的生物活性; TGI (tumour growth inhibition rate) ([1]; single agent, 12.5 mg/kg, twice daily, 21 days): 34%; antitumour effect in words ([1]; single agent, MC38 colon tumour model): 表现出抑瘤活性

The next lines start with results.

Row | effect on RORγ in vitro activity (mode of modulation, in words) (RORγ) | SMILES | further results
5 | 表现出激动的效果 | CCc1ccccc1Cc1cc2cc(C(=O)NCc3ccc(S(=O)(=O)CC)cc3)ccc2n1C(C)C [实施例10, 2-(2-(乙基苄基)-N-(4-(乙磺酰基)苄基)-1-异丙基-1H-吲哚-5-甲酰胺] | –
6 | 表现出抑制的效果 | CCS(=O)(=O)c1ccc(CNC(=O)c2ccc3c(c2)cc(Cc2ccc(C(F)(F)F)cc2F)n3C(C)C)cc1 [实施例15, N-(4-(乙磺酰基)苄基)-2-(2-氟-4-(三氟甲基)苄基)-1-异丙基-1H-吲哚-5-甲酰胺] | –
7 | 表现出抑制的效果 | CCS(=O)(=O)c1ccc(CNC(=O)c2ccc3c(c2)cc(Cc2cccc(C(F)(F)F)c2)n3C(C)C)cc1 [实施例17, N-(4-(乙磺酰基)苄基)-1-异丙基-2-(3-(三氟甲基)苄基)-1H-吲哚-5-甲酰胺] | –
